# Measured values as given in patent US4921941A, “Orally active antiandrogens” (Schering Corporation, priority 1987, dated 1990).
# How the values were obtained:
# [1] = Plasma concentrations of flutamide active metabolite for up to 16 hours after administration of esters or flutamide; format: in vivo, rats; settings: rat; for 0-16 hr (area under the plasma level curve of flutamide active metabolite) / Plasma concentration of flutamide active metabolite, 0.5 hr / Plasma concentration of flutamide active metabolite, 1 hr / Plasma concentration of flutamide active metabolite, 2 hr / Plasma concentration of flutamide active metabolite, 4 hr / Plasma concentration of flutamide active metabolite, 8 hr / Plasma concentration of flutamide active metabolite, 16 hr: normalized to a 5 mg/kg dose of flutamide active metabolite; for Plasma concentration of flutamide active metabolite, 0.5 hr / Plasma concentration of flutamide active metabolite, 1 hr / Plasma concentration of flutamide active metabolite, 2 hr / Plasma concentration of flutamide active metabolite, 4 hr / Plasma concentration of flutamide active metabolite, 8 hr / Plasma concentration of flutamide active metabolite, 16 hr: average of 3 animals; for Relative Rank (0-16 hr): 0-16 hr area relative to flutamide = 1.00
# Description: Plasma concentrations of the flutamide active metabolite were determined by gas-liquid chromatography in 300-350 gram male Sprague Dawley rats following single oral 5 mg/kg doses of the compounds listed. […]
# [2] = Plasma concentrations of flutamide active metabolite in rats after single oral doses of various esters (0-4 hours), gas-liquid chromatography; format: in vivo, male Sprague Dawley rats; settings: rat; for Relative Rank (0-4 hour area): oral, 0-4 hour area relative to flutamide = 1.00; for Area under the 0-4 hour plasma level curve of flutamide active metabolite (0-4 Hours) / Plasma concentration of flutamide active metabolite, 2 Hours / Plasma concentration of flutamide active metabolite, 4 Hours: single oral dose, normalized to a 5 mg/kg dose of flutamide active metabolite; for Plasma concentration of flutamide active metabolite, 2 Hours / Plasma concentration of flutamide active metabolite, 4 Hours: average of 2 animals
Molecule,0-16 hr (area under the plasma level curve of flutamide active metabolite) [1] [ng·h/mL],"Plasma concentration of flutamide active metabolite, 0.5 hr [1] [ng/mL]","Plasma concentration of flutamide active metabolite, 1 hr [1] [ng/mL]","Plasma concentration of flutamide active metabolite, 2 hr [1] [ng/mL]","Plasma concentration of flutamide active metabolite, 4 hr [1] [ng/mL]","Plasma concentration of flutamide active metabolite, 8 hr [1] [ng/mL]","Plasma concentration of flutamide active metabolite, 16 hr [1] [ng/mL]",Relative Rank (0-16 hr) [1],Relative Rank (0-4 hour area) [2],Area under the 0-4 hour plasma level curve of flutamide active metabolite (0-4 Hours) [2] [ng·h/mL],"Plasma concentration of flutamide active metabolite, 2 Hours [2] [ng/mL]","Plasma concentration of flutamide active metabolite, 4 Hours [2] [ng/mL]"
"CC(C)C(=O)Nc1ccc([N+](=O)[O-])c(C(F)(F)F)c1 [H (flutamide), 2-methyl-N-[4-nitro-3-(trifluoromethyl)phenyl]propanamide, reference compound]",8270,210,322,614,722,649,236,1.00,1.00,2400,715,974
"C[C@H](N)C(=O)NCC(=O)N(C)CC(=O)OC(C)(C)C(=O)Nc1ccc([N+](=O)[O-])c(C(F)(F)F)c1 [ala--gly--sar, L-alanyl-glycyl-N-methylglycine, [1-methyl-[[4-nitro-3-(trifluoromethyl)phenyl]aminocarbonyl]ethyl]ester]",17200,1079,2029,1365,1803,1005,423,2.08,2.09,5020,1952,1115
"CC(C)(OC(=O)[C@@H]1CCCN1C(=O)CNC(=O)[C@@H](N)CCCCN)C(=O)Nc1ccc([N+](=O)[O-])c(C(F)(F)F)c1.Cl.Cl [lys--gly--pro, L-lysyl-glycyl-L-proline-[1-methyl-[[4-nitro-3-(trifluoromethyl)phenyl]aminocarbonyl]ethyl]ester, dihydrochloride]",15600,1392,1907,1751,1170,1054,256,1.89,2.66,6400,2277,1847
"CN(CC(=O)OC(C)(C)C(=O)Nc1ccc([N+](=O)[O-])c(C(F)(F)F)c1)C(=O)CNC(=O)[C@@H](N)CCCCN [lys--gly--sar, L-lysyl-glycyl-N-methylglycine, [1-methyl-[[4-nitro-3-(trifluoromethyl)phenyl]aminocarbonyl]ethyl]ester]",,,,,,,,,1.44,3450,1103,1248
CNCC(=O)OC(C)(C)C(=O)Nc1ccc([N+](=O)[O-])c(C(F)(F)F)c1 [sar],,,,,,,,,1.52,3650,1345,958
"L-Proline-[1-methyl-[[4-nitro-3-trifluoromethyl)phenyl]aminocarbonyl]ethyl ]ester, hydrochloride",,,,,,,,,1.46,3510,1059,1393
